Source: article PMC12363342, “Investigating the N-terminal linker histone H1 subtypes as substrates for JmjC lysine demethylases” (RSC Chemical Biology, 2025)
Square brackets hold non-standard residues; d marks the D form. Ends that are not written are not given here. Lys(Me3) = C[N+](C)(C)CCCC[C@H](N)C(=O)O

How the values were obtained:
KDM4A = assay: LC-MS demethylation activity assay, KDM4A; format: biochemical, human; settings: 10 μM FAS, 100 μM LAA, 20 μM 2OG, room temperature; for substrate conversion (demethylation) by KDM4A: 2 μM KDM4A, 10 μM peptide, HEPES pH 7.5, 2 h; for KDM4A demethylation activity, T: 2 μM KDM, 10 μM H1/H3 peptide, 50 mM HEPES pH 7.5, 2 h, T (tri-) initial methylation state
Summary of the method: (§1)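 H1 isoform peptides (10 μM) were incubated 2 h at room temperature with 2 μM recombinant N-terminally His6-tagged catalytic domains in 50 mM HEPES pH 7.5 containing FAS (10 μM), ascorbate (100 μM) and 2OG (20 μM). Reactions were quenched with formic acid (1% final), and demethylation was analysed by LC-MS (Q-TOF).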

KDM4E = biological target: T1, KDM4E (Homo sapiens, UniProt B2RXH2); assay: LC-MS demethylation activity assay, KDM4E; format: biochemical; settings: room temperature; for substrate conversion (demethylation) by KDM4E / di-methylated product formed by KDM4E / mono-methylated product formed by KDM4E: 2 μM KDM4E, 10 μM peptide; for substrate conversion (demethylation) by KDM4E / KDM4E demethylation activity, T: 10 μM FAS, 100 μM LAA, 20 μM 2OG; for substrate conversion (demethylation) by KDM4E: HEPES pH 7.5, 2 h; for di-methylated product formed by KDM4E / mono-methylated product formed by KDM4E: standard conditions, 2 h; for KDM4E demethylation activity, T: 2 μM KDM, 10 μM H1/H3 peptide, 50 mM HEPES pH 7.5, 2 h, T (tri-) initial methylation state
T1 construct: KDM4DM1-L359,[39]; KDM4EM1-R336,[30]; His6 (N); made in house; host or cells: Escherichia coli
T1 sequence (B2RXH2 1-336): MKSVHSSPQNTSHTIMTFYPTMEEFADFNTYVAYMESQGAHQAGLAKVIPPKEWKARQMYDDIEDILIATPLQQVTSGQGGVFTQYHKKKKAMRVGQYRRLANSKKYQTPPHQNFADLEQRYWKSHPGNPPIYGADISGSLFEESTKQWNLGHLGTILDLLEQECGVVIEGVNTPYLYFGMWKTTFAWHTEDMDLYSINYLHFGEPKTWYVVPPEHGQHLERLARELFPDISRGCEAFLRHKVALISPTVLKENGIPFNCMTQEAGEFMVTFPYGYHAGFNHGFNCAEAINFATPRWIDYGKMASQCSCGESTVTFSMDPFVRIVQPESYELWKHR
Summary of the method: as §1

Substance	substrate conversion (demethylation) by KDM4A (KDM4A) [%]	KDM4A demethylation activity, T (KDM4A)	substrate conversion (demethylation) by KDM4E (KDM4E) [%]	di-methylated product formed by KDM4E (KDM4E) [%]	mono-methylated product formed by KDM4E (KDM4E) [%]	KDM4E demethylation activity, T (KDM4E)
KKKAAK[Lys(Me3)]AGGTPRKA [Peptide H1.2K26me3, 15-mer linker histone H1.2 residues 20-34 peptide, tri-methylated K26]	~51	● [yellow] (yellow dots indicate moderate demethylation (<50% conversion))	~80	~50	~30	● [green] (green dots indicate good demethylation (>50% conversion))
KKKAA[Lys(Me3)]KAGGTPRKA [Peptide H1.2K25me3, 15-mer linker histone H1.2 residues 20-34 peptide, tri-methylated K25]	~45	● [green] (green dots indicate good demethylation (>50% conversion))	~80	~50	~30	● [red]
KKKAR[Lys(Me3)]SAGAAKRKA [Peptide H1.4K25me3, 15-mer linker histone H1.4 residues 20-34 peptide, tri-methylated K25]	~87	● [green] (green dots indicate good demethylation (>50% conversion))	~95	~28	~67	● [red]
KKKATK[Lys(Me3)]AAGAGAAK [Peptide H1.5K26me3, 15-mer linker histone H1.5 residues 20-34 peptide, tri-methylated K26]	< 10	● [green] (green dots indicate good demethylation (>50% conversion))	–	~40	~16	● [green] (green dots indicate good demethylation (>50% conversion))
KKKA[Lys(Me3)]KAGATAGKRK [Peptide H1.3K24me3, 15-mer linker histone H1.3 residues 20-34 peptide, tri-methylated K24]	~36	● [green] (green dots indicate good demethylation (>50% conversion))	~80	~42	~38	● [green] (green dots indicate good demethylation (>50% conversion))
